Test results reported in patent publication US20210205292A1, “INHIBITORS OF CREB-CBP INTERACTION FOR TREATMENT OF LEUKEMIA” (The Board of Trustees of the Leland Stanford Junior …, priority 2016, published 2021).

Columns and labels:
[1] = system: KG-1 cells; test: Viable cell count of engineered KG-1 cell lines (CREB KD, GFP, CREB OE, CBP OE); format: cell-based; conditions: Homo sapiens, KG-1, 48 h, 48 hours
Description: AML cell lines were purchased from ATCC and maintained with IMDM (Gibco) supplemented with 10% FBS (Fisher Scientific) and 1% PSG (Gibco). Cells were plated at a density of 2-4×10^5 cells/ml, and treated with various doses of Compound A in 0.1% DMSO or 0.1% DMSO alone. Cell counts and viability were determined using the Vi-CELL XR Cell Viability Analyzer (Beckman Coulter). HL-60 and KG-1 cells overexpressing CREB or CBP were generated using lentiviral gene delivery with subsequent puromycin selection and FACs sorting for GFP. CREB knockdown was achieved by infecting cells with a lentivirus expressing the shRNA sequence 5′-[…]-3′ (SEQ ID NO:). For chemotherapy combination experiments, combination index values were calculated using median effects analysis on Calcusyn software. Human patient bone marrow samples were cultured in DMEM plus 20% FBS and 1×PSG, supplemented with recombinant GM-CSF (20 ng/ml), G-CSF (20 ng/ml), SCF (50 ng/ml), IL-3 (20 ng/ml), and IL-6 (10 ng/ml). Cells were plated at a concentration of 1×10^5 cells/ml in a 12-well plate. Vehicle (0.1% DMSO) or Compound A (2 μM) was added for up to 72 hours. All samples contained >85% AML blasts and were not sorted prior to performing experiments. Immunostaining and flow cytometry analyses were performed according to standard procedures. All antibodies were purchased from BD Biosciences. Single cell suspensions of bone marrow culture were subsequently analyzed on a D×P10 flow cytometer (Cytek). Bone marrow from AML patients were collected through voluntary patient participation at University of California, Los Angeles (Los Angeles, Calif., USA) and Stanford University (Palo Alto, Calif., USA) in compliance with the Institutional Review Board regulations of each institution.
To test the effects of CREB inhibition on AML cells, four AML cell lines were treated with doses of Compound A ranging from 100 pM to 10 μM for 48 hours. […] KG-1 cells were less sensitive to Compound A and expressed lower levels of CREB compared to HL-60 cells (FIG. 2, panel A). CREB was overexpressed to determine whether sensitivity of KG-1 cells to Compound A could be increased. KG-1 cell lines in which CREB or CBP was overexpressed, or CREB was knocked down by shRNA, were generated (FIG. 2C). A KG-1 cell line expressing only GFP was used as a control. These cell lines were treated with a range of Compound A concentrations for 48 hours (FIG. 2D). Experiments were also performed to examine the efficacy of combining Compound A with cytarabine or daunorubicin, standard drugs used in AML therapy.

[2] = Plasma pharmacokinetics in NSG mice, quantitative mass spectrometry; format: in vivo; conditions: mouse, ip, 20 mg/kg/day, 20 mg/kg/day IP
Description: FIG. 10, panels A-D, illustrates the non-toxicity and pharmacodynamics of compound Compound A. Panel A) Human AML patient sample cells (#186) were injected (2×10^6 cells) into 8 NSG mice, and mice were then treated with intravenous 0.1% DMSO or 2.3 mg/kg Compound A IV once daily. […] Compound A plasma concentration was measured by quantitative mass spectrometry. […] Panel C). […] Numbers shown are averages of values from 3 mice SE.
To assess the potential in vivo toxicities of Compound A, four groups of five mice not injected with AML cells were treated with 2.3 mg/kg Compound A intravenously daily, or 20, 40 or 60 mg/kg intraperitoneally (IP) daily for 28 days.

[3] = system: CMV-driven promoter; test: CMV-driven luciferase reporter in KG-1 cells; format: cell-based; conditions: 6 hours
Description: KG-1 cell lines were created to express luciferase in a CREB-dependent or non-CREB-dependent fashion using lentiviral gene delivery. Cells were sorted for mCherry expression by flow cytometry and selected with puromycin. Luciferase activity was measured on a […] using the Promega Luciferase Activity Kit (Promega) per manufacturer's instructions following six hours of treatment with Compound A or 0.1% DMSO. The split Renilla luciferase complementation assay has been described previously (Li BX, and Xiao X. Discovery of a small-molecule inhibitor of the KIX-KID interaction. Chembiochem: a European journal of chemical biology. 2009; 10(17):2721-4). In this assay, the KID and KIX domains were fused to the N- and C-terminal regions of Renilla luciferase, respectively. Once KIX binds phosphorylated KID, the Renilla luciferase regions were brought together, resulting in luciferase activity.
To test the ability of Compound A to disrupt CREB-CBP binding in cells, a split Renilla luciferase complementation assay was performed. […] This early timepoint was selected to permit accurate reporter gene activity measurement prior to the onset of anticipated global cell dysfunction or death induced by Compound A. Treatment with 3 μM Compound A reduced luciferase activity by 33.2±7.7% at this timepoint. […] Thus, Compound A inhibits CREB function through disruption of CREB:CBP interaction.

[4] = system: H3K27 acetylation at CREB-bound genes; test: Whole-genomic H3K27 histone acetylation analysis in KG-1 cells; format: cell-based; conditions: 5 μM
[5] = biological target: T1, KIX domain of CBP, Arginine-600 to Alanine mutant (GST fusion) (Homo sapiens, UniProt Q92793, R601A); test: Biacore surface plasmon resonance, binding to KIX Arg-600-Ala mutant versus native KIX; conditions: 5 μM
T1 construct: spans CBP amino acids 586-666; made in house; host or cells: E. coli BL21(DE3)
Description: KIX domain mutants were created by standard cloning and mutagenesis methods in the pGEX4T3 vector (GE Healthcare Life Sciences). GST-KIX fusion proteins were expressed in BL21(DE3-) cells (New England Biolabs) following induction with 1 mM IPTG for 6 hours at 37 degrees. GST-KIX and its mutants were purified with the B-PER GST Fusion Protein Spin Purification Kit (Thermo Scientific/Pierce). Surface Plasmon Resonance (Biacore) analysis was performed on a GE Biacore 3000 surface plasmon resonance instrument in collaboration with the Stanford Protein and Nucleic Acid (PAN) Facility.
To confirm the binding of Compound A to the KIX domain of CBP, the KIX domain was expressed and purified as a fusion protein with Glutathione-S-Transferase (GST). Binding of Compound A to the KIX domain and two KIX domain mutants in which residues critical for CREB binding were altered or removed (Arg-600 mutated to Alanine or deletion of amino acids 586-602) was determined by Surface Plasmon Resonance (Biacore) analysis (FIG. 1, panel B). Mutation of Arginine-600 to Alanine reduced binding of Compound A by ˜45%, while a KIX domain mutant lacking amino acids 586-602 reduced binding by ˜70%. […] A hypothetical binding model between Compound A and CBP KIX domain is shown (FIG. 1, panel C). […]

T1 sequence (Q92793 586-666 R601A): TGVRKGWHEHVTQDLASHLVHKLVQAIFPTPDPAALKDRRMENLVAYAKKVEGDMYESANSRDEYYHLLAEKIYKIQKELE

With `N#Cc1ccc(NC(=O)c2cc3ccccc3cc2O)cc1` [Compound A, N-(4-cyanophenyl)-3-hydroxy-2-naphthamide] the IC50 ([1]; KG-1 CBP OE) was 0.826 µM, the IC50 ([1]; KG-1 CREB KD) was 1.79 µM and the IC50 ([1]; KG-1 CREB OE) was 0.687 µM. For the same compound, the IC50 ([1]; KG-1 GFP control) was 1.04 µM, the half-life [2] was 4.3 h and the CMV-driven luciferase expression [3] was “unchanged”. For the same compound, the “CREB-bound genes with decreased H3K27 histone acetylation” value [4] was “Greater than 95%” and the “reduction of binding of Compound A by mutation of Arginine-600 to Alanine” value [5] was ~45%.
